Experimental data taken from ChEMBL document CHEMBL1148299 (J Med Chem, 2004).

How the values were obtained:
Rattus norvegicus [1] = assay: Area under curve value 6 hr after po administration in rat; format: ADME, organism-based; design: time < 6 hr, route oral; concentration or dose not given beside the values; conditions: in vivo
[2] = biological target: C-C chemokine receptor type 5 (Homo sapiens, UniProt P51681); assay: Antagonistic activity against C-C chemokine receptor type 5; format: functional
[3] = biological target: T1, Muscarinic acetylcholine receptor M1 (Homo sapiens, UniProt P11229); assay: Antagonistic activity against muscarinic M1 receptor; format: functional
T1 sequence (P11229 whole entry): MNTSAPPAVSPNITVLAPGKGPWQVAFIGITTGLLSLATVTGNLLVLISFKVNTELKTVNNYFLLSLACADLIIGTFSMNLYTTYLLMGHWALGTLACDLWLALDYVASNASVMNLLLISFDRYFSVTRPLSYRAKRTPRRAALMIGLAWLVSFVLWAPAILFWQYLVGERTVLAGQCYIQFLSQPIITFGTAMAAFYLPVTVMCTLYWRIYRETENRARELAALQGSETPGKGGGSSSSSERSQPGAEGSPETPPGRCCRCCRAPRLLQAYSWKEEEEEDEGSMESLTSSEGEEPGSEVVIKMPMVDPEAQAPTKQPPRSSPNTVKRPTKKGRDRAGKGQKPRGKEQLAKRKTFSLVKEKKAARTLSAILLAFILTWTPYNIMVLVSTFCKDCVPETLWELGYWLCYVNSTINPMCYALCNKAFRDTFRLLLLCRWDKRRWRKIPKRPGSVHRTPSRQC

[4] = biological target: T2, Muscarinic acetylcholine receptor M2 (Homo sapiens, UniProt P08172); assay: Antagonistic activity against Muscarinic acetylcholine receptor M2; format: functional
T2 sequence (P08172 whole entry): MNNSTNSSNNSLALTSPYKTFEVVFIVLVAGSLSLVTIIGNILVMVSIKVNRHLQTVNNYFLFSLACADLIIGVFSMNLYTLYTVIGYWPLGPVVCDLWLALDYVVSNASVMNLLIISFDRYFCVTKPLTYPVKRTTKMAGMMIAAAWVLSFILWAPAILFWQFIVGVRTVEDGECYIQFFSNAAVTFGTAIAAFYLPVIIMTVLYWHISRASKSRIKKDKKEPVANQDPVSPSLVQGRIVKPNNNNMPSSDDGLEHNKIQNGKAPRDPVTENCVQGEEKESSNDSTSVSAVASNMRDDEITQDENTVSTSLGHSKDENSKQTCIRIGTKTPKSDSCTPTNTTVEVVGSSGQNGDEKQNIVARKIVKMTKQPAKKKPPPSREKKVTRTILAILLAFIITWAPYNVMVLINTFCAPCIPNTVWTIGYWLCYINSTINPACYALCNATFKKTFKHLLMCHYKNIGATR

[5] = biological target: Muscarinic acetylcholine receptor M3 (Homo sapiens, UniProt P20309); assay: Antagonistic activity against muscarinic M3 receptor; format: functional
[6] = (§1) Compound was tested for the inhibition of HIV-1 301657 clinical isolate in PBMC cultures; format: functional; conditions: Homo sapiens
[7] = (§2) Compound was tested for the inhibition of HIV-1 ADA-M clinical isolate in PBMC cultures; format: functional; conditions: Homo sapiens
[8] = (§3) Compound was tested for the inhibition of HIV-1 JV1083 clinical isolate in PBMC cultures; format: functional; conditions: Homo sapiens
[9] = (§4) Compound was tested for the inhibition of HIV-1 JrFL clinical isolate in PBMC cultures; format: functional; conditions: Homo sapiens
[10] = (§5) Compound was tested for the inhibition of HIV-1 RU 570 clinical isolate in PBMC cultures; format: functional; conditions: Homo sapiens
[11] = Compound was tested for inhibiting the entry of replication deffective HIV-1 (YU-2) in to […] cells; format: functional, cell-based; conditions: Homo sapiens
[12] = Area under curve value 24 hr after 2 mg/kg iv administration in monkeys; format: ADME, organism-based; design: time < 24 hr, dose 2 mg/kg, route intravenous; conditions: cercopithecidae, in vivo
[13] = Area under curve value 24 hr after 2 mg/kg oral administration in monkeys; format: ADME, organism-based; design: time < 24 hr, dose 2 mg/kg, route oral; conditions: cercopithecidae, in vivo
[14] = Bioavailability in monkey (dose 2 mg/kg); format: ADME, organism-based; conditions: cercopithecidae, in vivo
[15] = Half-life 24 hr after 10 mg/kg iv administration in rats; format: ADME, organism-based; design: dose 10 mg/kg, route intravenous; conditions: rat, in vivo
[16] = Cmax 24 hr after 2 mg/kg oral administration in monkeys; format: ADME, organism-based; design: dose 2 mg/kg, route oral; conditions: cercopithecidae, in vivo
[17] = Bioavailability after administration of 10 mg/kg in rats; format: ADME, organism-based; conditions: rat, in vivo, read-out: Bioavailabiility
Rattus norvegicus [18] = assay: Area under curve value 24 hr after 10 mg/kg iv administration in rats; format: ADME, organism-based; design: time < 24 hr, dose 10 mg/kg, route intravenous; conditions: in vivo
Rattus norvegicus [19] = assay: Area under curve value 24 hr after 10 mg/kg oral administration in rats; format: ADME, organism-based; design: time < 24 hr, dose 10 mg/kg, route oral; conditions: in vivo
[20] = Cmax 24 hr after 10 mg/kg oral administration in rats; format: ADME, organism-based; design: dose 10 mg/kg, route oral; conditions: rat, in vivo
[21] = Half-life 24 hr after 2 mg/kg iv administration in monkeys; format: ADME, organism-based; design: dose 2 mg/kg, route intravenous; conditions: cercopithecidae, in vivo
[22] = Half-life 24 hr after 2 mg/kg iv administration in rats; format: ADME, organism-based; design: dose 2 mg/kg, route intravenous; conditions: rat, in vivo
Rattus norvegicus [23] = assay: Area under curve value 24 hr after 2 mg/kg iv administration in rats; format: ADME, organism-based; design: time < 24 hr, dose 2 mg/kg, route intravenous; conditions: in vivo
Rattus norvegicus [24] = assay: Area under curve value 24 hr after 2 mg/kg oral administration in rats; format: ADME, organism-based; design: time < 24 hr, dose 2 mg/kg, route oral; conditions: in vivo
[25] = Cmax 24 hr after 2 mg/kg oral administration in rats; format: ADME, organism-based; design: dose 2 mg/kg, route oral; conditions: rat, in vivo
Homo sapiens [26] = species on record: Homo sapiens; assay: as §1; format: functional
Homo sapiens [27] = species on record: Homo sapiens; assay: as §2; format: functional
Homo sapiens [28] = species on record: Homo sapiens; assay: as §3; format: functional
Homo sapiens [29] = species on record: Homo sapiens; assay: as §4; format: functional
Homo sapiens [30] = species on record: Homo sapiens; assay: as §5; format: functional
[31] = Bioavailability after administration of 2 mg/kg in rats; format: ADME, organism-based; conditions: rat, in vivo, read-out: Bioavailabiility

Chain of C-C chemokine receptor type 5 (P51681 whole entry): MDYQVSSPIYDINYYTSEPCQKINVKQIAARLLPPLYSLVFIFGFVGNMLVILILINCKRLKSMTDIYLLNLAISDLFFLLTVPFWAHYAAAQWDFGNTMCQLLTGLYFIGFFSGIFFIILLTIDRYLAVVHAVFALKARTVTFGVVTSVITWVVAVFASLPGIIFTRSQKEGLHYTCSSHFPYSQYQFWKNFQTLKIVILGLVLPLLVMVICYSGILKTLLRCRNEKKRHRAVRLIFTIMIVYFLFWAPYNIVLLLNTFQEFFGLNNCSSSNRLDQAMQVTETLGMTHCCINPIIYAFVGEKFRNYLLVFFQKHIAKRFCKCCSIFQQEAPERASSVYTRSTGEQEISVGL
Chain of Muscarinic acetylcholine receptor M3 (P20309 whole entry): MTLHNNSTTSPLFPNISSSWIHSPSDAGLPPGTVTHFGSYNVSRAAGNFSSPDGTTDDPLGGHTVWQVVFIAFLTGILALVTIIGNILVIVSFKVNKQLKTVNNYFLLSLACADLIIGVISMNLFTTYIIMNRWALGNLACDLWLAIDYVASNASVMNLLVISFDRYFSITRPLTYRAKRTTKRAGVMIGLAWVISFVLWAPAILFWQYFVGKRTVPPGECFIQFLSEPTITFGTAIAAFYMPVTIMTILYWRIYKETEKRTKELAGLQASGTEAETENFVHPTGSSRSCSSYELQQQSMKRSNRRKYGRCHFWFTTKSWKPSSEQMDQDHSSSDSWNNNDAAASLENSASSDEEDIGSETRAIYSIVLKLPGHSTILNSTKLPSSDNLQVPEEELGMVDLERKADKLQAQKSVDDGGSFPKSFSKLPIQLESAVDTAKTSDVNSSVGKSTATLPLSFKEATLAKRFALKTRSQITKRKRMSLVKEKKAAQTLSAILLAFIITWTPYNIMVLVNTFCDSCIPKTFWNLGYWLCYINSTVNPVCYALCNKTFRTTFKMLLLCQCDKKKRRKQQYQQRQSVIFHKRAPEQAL

| AUC 0-6h (Rattus norvegicus [1]) [ng·h/mL] | Ki [2] [nM] | Ki [3] [nM] | Ki [4] [nM] | IC90 [6] [nM] | IC90 [7] [nM] | IC90 [8] [nM] | IC90 [9] [nM] | IC90 [10] [nM] | IC50 [11] [nM] | Compound | Ki [5] [nM] | other results |
| --- | --- | --- | --- | --- | --- | --- | --- | --- | --- | --- | --- | --- |
| 6900 | – | > 10000 | > 10000 | 1.8 | 2.8 | 4.9 | 3.3 | 10 | 0.46 | COC[C@@H](c1ccc(C(F)(F)F)cc1)N1CCN(C2(C)CCN(C(=O)c3c(C)ncnc3C)CC2)C[C@@H]1C [VICRIVIROC] | – | AUC 0-24h [12]: 2240 ng·h/mL; AUC 0-24h [13]: 1990 ng·h/mL; bioavailability [14]: 89%; half-life [15]: 8 h; Cmax [16]: 670 ng/mL; bioavailability [17]: 100%; AUC 0-24h (Rattus norvegicus [18]): 21000 ng·h/mL; AUC 0-24h (Rattus norvegicus [19]): 21000 ng·h/mL; Cmax [20]: 2300 ng/mL; half-life [21]: 3.5 h |
| 4600 | 1.1 | 6070 | 4760 | – | – | – | – | – | 0.35 | CCC[C@@H](c1ccc(C(F)(F)F)cc1)N1CCN(C2(C)CCN(C(=O)c3c(C)ncnc3C)CC2)C[C@@H]1C | > 5300 | AUC 0-24h [12]: 2670 ng·h/mL; AUC 0-24h [13]: 1760 ng·h/mL; bioavailability [14]: 66%; half-life [22]: 15.5 h; Cmax [16]: 240 ng/mL; AUC 0-24h (Rattus norvegicus [23]): 4550 ng·h/mL; AUC 0-24h (Rattus norvegicus [24]): 3270 ng·h/mL; Cmax [25]: 311 ng/mL; IC90 (Homo sapiens [26]): 0.09 nM; IC90 (Homo sapiens [27]): 0.03 nM; IC90 (Homo sapiens [28]): 0.27 nM; IC90 (Homo sapiens [29]): 0.01 nM; IC90 (Homo sapiens [30]): 0.43 nM; half-life [21]: 6.3 h; bioavailability [31]: 72% |
| 7310 | 5.2 | 3900 | 4750 | 16 | 21 | 18 | 19 | 1000 | 0.18 | CC[C@@H](c1ccc(C(F)(F)F)cc1)N1CCN(C2(C)CCN(C(=O)c3c(C)ncnc3C)CC2)C[C@@H]1C | 9090 | – |

The remaining lines, values behind:

| Compound | AUC 0-6h (Rattus norvegicus [1]) [ng·h/mL] | Ki [2] [nM] | Ki [3] [nM] | Ki [4] [nM] | IC90 [6] [nM] | IC90 [7] [nM] | IC90 [8] [nM] | IC90 [9] [nM] | IC90 [10] [nM] | IC50 [11] [nM] | Ki [5] [nM] | other results |
| --- | --- | --- | --- | --- | --- | --- | --- | --- | --- | --- | --- | --- |
| Cc1ncnc(C)c1C(=O)N1CCC(C)(N2CCN([C@@H](Cc3ccccc3)c3ccc(C(F)(F)F)cc3)[C@@H](C)C2)CC1 | 2030 | 1.4 | > 3900 | > 5700 | 0.6 | 0.04 | 0.25 | 0.19 | 4 | 0.13 | > 5300 | – |
| Cc1ncnc(C)c1C(=O)N1CCC(C)(N2CCN([C@@H](CC3CC3)c3ccc(C(F)(F)F)cc3)[C@@H](C)C2)CC1 | 5900 | 1.6 | 1890 | 3510 | – | – | – | – | – | 0.8 | – | – |
| CCO/N=C(\c1ccc(Br)cc1)C1CCN(C2(C)CCN(C(=O)c3c(C)cc[n+]([O-])c3C)CC2)CC1 [ANCRIVIROC] | – | – | – | – | 43 | 25 | 10 | 19 | 400 | – | – | – |
| Cc1ncnc(C)c1C(=O)N1CCC(C)(N2CCN([C@@H](CCC(F)(F)F)c3ccc(C(F)(F)F)cc3)[C@@H](C)C2)CC1 | 4600 | – | > 3700 | > 6700 | – | – | – | – | – | 1.44 | – | – |
| Cc1ncnc(C)c1C(=O)N1CCC(C)(N2CCN([C@@H](C)c3ccc(C(F)(F)F)cc3)[C@@H](C)C2)CC1 | 6210 | – | 575 | – | 13 | 19 | 31 | 40 | > 1000 | 0.39 | 716 | – |
